Data published in patent publication US20260083698A1, “Synergistic Stimulation of Mucociliary Clearance to Treat Mucus Obstruction in Cystic Fibrosis and Other Muco-Obstructive Disorders” (The Board of Trustees of the Leland Stanford Junior …, priority 2022, published 2026).

Key:
WT piglet tracheas = experiment: Mucociliary clearance velocity (MCCV) in ex vivo WT piglet tracheas; design: species or system pig; conditions: for Averaged MCCV: 10 μM forskolin, 0.3 μM carbachol, last 20 min of single agonist period, last 50 min of synergy period
Method: MCCV in tracheas was measured from 2 to 5 days old WT piglets (see “Methods” section for details). […] The 8 piglet tracheas were divided into two groups and tested 4 by applying forskolin first and 4 by applying carbachol first, followed by the combined agonists.
These experiments used forskolin to elevate cAMP.
Pig tissues. Newborn WT piglet tracheas (2-5 days old) were directly obtained at the swine facility of UC Davis or from the laboratory of David Stoltz, University of Iowa, via overnight priority express. Postmortem (<1 h) tracheas from young adult Yorkshire pigs (30-50 kg) and 5-12 months old M. putorius ferrets were from animal facilities at Stanford and Gilroy/CA. All methods using animal tracheae were carried out in accordance with relevant guidelines and regulations of Stanford University and animal protocols were approved (Stanford IACUC protocol#: 10,048). Piglet tracheas were shipped in DMEM cell culture medium, other animal tissues were transported to the laboratory in cold PhysioSol™ solution (Hospira, IL/USA) and then transferred to icecold Krebs Ringer bicarbonate (KRB) buffer gassed with 95% O2 and 5% CO2 and kept at 4° C. until use. The KRB buffer contained (in mM): 115 NaCl, 25 NaHCO3, 2.4 K2HPO4, 0.4 KH2PO4, 1.2 MgCl2, 1.2 CaCl2, 10 glucose, and 1.0 μM indomethacin, adjusted to pH 7.2 and ˜290 mOsm at room temperature.
MCCV measurement. Details are in the previous reports (16,59,60). Briefly, each whole length ferret or piglet trachea, or a CF tracheal trim, was cut open along the mid-dorsal line and mounted mucosal side up onto a Sylgard elastomer platform. […] The prepared trachea was placed into a sealed, humidified chamber bubbled continuously with gas (95%/5%-O2/CO2) with the serosal surface bathed with KRB buffer±drugs. […] Then excess apical solution was drained, and tissue was incubated for an additional 10 min before starting baseline measurements of MCCV. Drugs were added by bath replacement with pre-warmed bath+drug(s). Summary MCCV data are reported as a single number and based on the averaged MCCV during the last 20 min of the treatment period unless stated otherwise.
MCCV (all values are in mm/min) was then measured for 90-120 min and plotted as MCCV vs time and agonist(s) in FIG. 8.
It was hypothesized that the synergistic MCC induced by β-adrenergic and cholinergic agonists involved ENaC inhibition.

[1] = tested on: CF ferret (CFTRKO/KO) tracheal glands; experiment: Optical measurement of glandular mucus secretion rate, CF ferret; conditions: 10 mM forskolin, 0.3 mM carbachol, one ferret per order of addition
Excerpt: Synergistic glandular mucus secretion in WT pigs, WT ferrets, and CF ferrets. Synergistic increases in MCCV rely partly on increased mucus secretion from submucosal glands. This hypothesis arises from evidence that combinations of [Ca^2+]i-elevating and [cAMP]i-elevating agonists produce synergistically elevated rates of mucus from submucosal glands of humans (22), pigs (24), and ferrets (21). However, in those experiments different specific concentrations of agonists were used. To determine if the same protocols used here produced synergistic increases in secretion from submucosal glands, mucus secretion rates of individual tracheal glands in WT pigs and ferrets and in CF ferrets were measured via time-lapse optical imaging (28) while stimulating them with the same concentrations of agonists and durations of exposure used for MCCV studies. All secretion rates are reported as nanoliters/min/gland. […] Only two CF ferrets were able to be tested (FIG. 3G-I). […] Unstimulated secretion rates were zero, as in WT ferrets. […] The averaged secretion rate across both ferrets to the combined agonists was 1.27±0.15,which is 2.8 times the arithmetic sum of the two agonists used alone, and about half of the response of WT ferrets of 2.46±0.39 (16). Airway tissue procurement. […] Stored images were analyzed by direct measurement or with ImageJ software (V. 1.50i, https://imagej.nih.gov/ij/, NIH, MD/USA).

human nasal mucosa = experiment: Ciliary beat frequency (CBF) measurement; conditions: 37° C.; for CBF: human nasal mucosa, KRB, 0.3 μM carbachol, 10 μM forskolin
Method: Ciliary beat frequency was measured in human nasal mucosa from 4 subjects. CBF (in Hz) of unstimulated tissues at 37° C. in Krebs buffer (KRB) was 10.46±0.95. […] (Note that in this experiment any effects on ASL by the agonists were diluted because the ciliated tissue was studied while submerged in Krebs solution.) […] It was tested to see if CBF might display synergistic increases to the combined agonists. CBF (in Hz) of unstimulated human nasal cells in KRB (Krebs buffer solution) was 6.79±1.69 at 25° C. and 10.46±0.95 at 37° C. (4 subjects, P=0.01) (see “Methods” section). […] Thus, while increases in CBF will contribute to increases in MCCV, they are unlikely to account for the synergistic increase in MCCV seen with the combined agonists (see “Discussion” section). Human tissues. Human nasal mucosal tissues were obtained from nasal biopsies during endoscopic sinus surgeries at Yonsei University Hospital. All methods using human tissues were carried out in accordance with relevant guidelines and regulations of Yonsei University, Seoul, South Korea. All experimental protocols were approved by Yonsei University and informed consent was obtained from all participants prior to the study (Yonsei University-IRB protocol#: 4-2016-1153). Ciliary beat frequency measurement. Ciliary beat frequency was measured using human nasal mucosa in the lab where ferret and pig tracheal mucosa was not readily accessible. Human nasal mucosa from endoscopic nasal biopsies was further dissected under a microscope and placed in a chamber controlled for temperature and pH control. Perfused Krebs bicarbonate buffer was maintained at 37° C. and pH 7.4. Cilia were visualized with a Zeiss microscope equipped with 40× or 60× objectives (Munich, Germany) using differential interference contrast (DIC) optics. […] Images were obtained for 10 s at each condition and experiments were performed in the following sequence: (1) unstimulated CBF at room temperature; (2) unstimulated at 37° C.; (3) CBF at 37° C. with 0.3 μM carbachol; (4) wash for 10 min; […] Each condition was maintained for at least 10 min. […] All recordings at each condition were made at three different areas of the epithelia, and the analyzed CBF was averaged for each experiment. To analyze captured images and calculate CBF, an in-house coding with a MATLAB software (MA, USA) was used.

Structure (SMILES) | Averaged MCCV (WT piglet tracheas; WT piglet tracheas) | effect on MCCV (WT piglet tracheas; WT piglet tracheas, carbachol or forskolin alone) | MCCV (WT piglet tracheas; pig tracheas, 10 μM formoterol in place of forskolin, carbachol) | average gland mucus secretion rate, single ferret [1] | increase in CBF vs unstimulated (human nasal mucosa) | CBF (human nasal mucosa)
C[N+](C)(C)CCOC(N)=O [carbachol] | 1.12±0.82 mm/min | only small increases | 1.3±0.8 mm/min | 0.45±0.16 nanoliters/min/gland | 5.3% | 11.04±1.3 Hz
C=C[C@@]1(C)CC(=O)[C@]2(O)[C@@]3(C)[C@@H](O)CCC(C)(C)[C@@H]3[C@H](O)[C@H](OC(C)=O)[C@@]2(C)O1 [forskolin] | 2.46±0.68 mm/min | – | – | 0.01 nanoliters/min/gland | 9.8% | 12.06±1.22 Hz
